Where two headings read alike, the source gives them in different places.
Columns and labels:
Septoria tritici = assay: Antifungal assay, Septoria tritici (optical density); assay type: cell-based; details: for IC50: Zymoseptoria tritici, read-out: IC50 Septoria tritici
Protocol: Septoria tritici. The substances were dissolved in DMSO to a concentration of 10 mM and transferred into a 96-well microtiter plate. For screening purposes, the compounds were tested in a final concentration of 100 μM. The fungal strain S. tritici was cultured on MYG medium (1.0% malt extract, 0.4% yeast extract, 0.4% glucose·H2O, pH = 5.6) for four days, subsequently the culture was diluted to an optical density (600 nm) of 0.03 and added to the microtiter plate. After incubation for 48 h at 20 °C, the optical density was measured. The resulting values were compared to a positive (0.53 μM boscalid) and a negative control (no compound) on the same plate.

Bacillus subtilis = assay: Antibacterial assay, Bacillus subtilis; assay type: cell-based; details: for IC50: Bacillus subtilis, antibacterial
Protocol: (§1) Bacillus subtilis, Staphylococcus lentus, Xanthomonas campestris and Candida albicans. The antimicrobial assays were performed as reported by Schulz et al..

Staphylococcus lentus = assay: Antibacterial assay, Staphylococcus lentus; assay type: cell-based; details: for IC50: Mammaliicoccus lentus, antibacterial
Protocol: as §1

[1] = test system: human fibroblast cell line (KIF5); assay: Cytotoxicity assay (CellTiterBlue), KIF5; assay type: cell-based; details: KIF5 cells
Protocol: (§2) Cytotoxicity assays. The sensitivity of the cell lines KIF5 and HepG2 to the isolated compounds was evaluated by monitoring the metabolic activity using the CellTiterBlue Cell Viability Assay (Promega, Mannheim, Germany). The human fibroblast cell line (KIF5) was provided by the Institute for Experimental Tumor Research, Section Molecular Oncology, Kiel, Germany, and the human hepatocellular carcinoma cell line (HepG2) was obtained from the German Collection of Microorganism and Cell Cultures (DSMZ, Braunschweig, Germany). The cytotoxicity assays were performed as described by Schulz et al., apart from the cell concentration, which were 5000 KIF5 cells and 10,000 HepG2 cells per vial.

Trichophyton rubrum = assay: Antifungal assay, Trichophyton rubrum (optical density); assay type: cell-based; details: for IC50: Trichophyton rubrum, antifungal, 72 h at 28 °C
Protocol: Trichophyton rubrum. The substances were dissolved in DMSO to a concentration of 10 mM and transferred into a 96-well microtiter plate. For screening purposes, the compounds were tested in a final concentration of 100 μM. For inoculation 5 × 10^4 spores mL^−1 from the fungal strain T. rubrum diluted in Sabouraud medium (1.0% peptone, 2.0% glucose·H2O, pH = 5.6) were added to the microtiter plate. After incubation for 72 h at 28 °C the optical density was measured.

[2] = test system: human hepatocellular carcinoma cell line (HepG2); assay: Cytotoxicity assay (CellTiterBlue), HepG2; assay type: cell-based; details: HepG2 cells
Protocol: as §2

Acetylcholinesterase = Acetylcholinesterase (Homo sapiens, UniProt P22303); assay: biochemical; assay type: biochemical; details: for IC50: enzyme assay
Protocol: (§3) Enzyme inhibition assays PDE4 and AChE assays were performed as described by Schulz et al. and Kim et al., respectively.

Phosphodiesterase 4 = assay: Enzyme inhibition assay PDE4; assay type: biochemical; details: for IC50: enzyme assay
Protocol: as §3

Candida albicans = assay: Antifungal assay, Candida albicans; assay type: cell-based; details: for IC50: antifungal
Protocol: as §1

MRSA = details: cited from earlier work

Chain of Acetylcholinesterase (P22303 32-614, species assumed): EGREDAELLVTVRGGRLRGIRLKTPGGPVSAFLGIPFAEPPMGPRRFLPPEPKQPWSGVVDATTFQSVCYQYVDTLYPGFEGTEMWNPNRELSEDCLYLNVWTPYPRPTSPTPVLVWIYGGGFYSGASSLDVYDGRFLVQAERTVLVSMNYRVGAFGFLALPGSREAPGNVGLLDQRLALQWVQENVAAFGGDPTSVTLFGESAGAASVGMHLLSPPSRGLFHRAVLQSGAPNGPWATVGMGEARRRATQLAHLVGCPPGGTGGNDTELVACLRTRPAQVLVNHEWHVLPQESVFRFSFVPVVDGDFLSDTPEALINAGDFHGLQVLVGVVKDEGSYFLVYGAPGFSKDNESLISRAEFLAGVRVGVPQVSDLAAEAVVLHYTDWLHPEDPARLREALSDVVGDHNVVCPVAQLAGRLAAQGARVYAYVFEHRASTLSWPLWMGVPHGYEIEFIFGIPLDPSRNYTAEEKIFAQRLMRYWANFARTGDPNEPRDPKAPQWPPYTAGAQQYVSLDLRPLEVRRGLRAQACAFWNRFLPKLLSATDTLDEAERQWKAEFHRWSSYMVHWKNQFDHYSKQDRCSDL

Row | Compound | IC50 (Bacillus subtilis) [µM] | IC50 (Staphylococcus lentus) [µM] | antibacterial activity against Bacillus subtilis (in words) (Bacillus subtilis) | inhibition of Septoria tritici (in words) (Septoria tritici) | inhibition of Trichophyton rubrum (in words) (Trichophyton rubrum) | antibacterial activity against Staphylococcus lentus (in words) (Staphylococcus lentus) | inhibition of Candida albicans (in words) (Candida albicans) | IC50 (Septoria tritici; antifungal, 48 h at 20 °C) [µM] | IC50 (Trichophyton rubrum) [µM] | IC50 (Acetylcholinesterase) [µM] | IC50 (Phosphodiesterase 4) [µM] | IC50 (Candida albicans; Candida albicans) [µM] | also measured
1 | O=C(Nc1ccccc1-c1ccc(Cl)cc1)c1cccnc1Cl [boscalid, reference compound] | – | – | – | – | – | – | – | – | – | – | – | – | IC50 (Septoria tritici; 48 h): 0.53 µM
2 | O=C(N[C@H](CO)[C@H](O)c1ccc([N+](=O)[O-])cc1)C(Cl)Cl [chloram-phenicol, reference compound] | 1.45 | 2.13 | – | – | – | – | – | – | – | – | – | – | –
3 | CC=CC(=O)OC1CC(C)OC(=O)CCC(O)CC1=O (stereo not drawn) [compound 6, bartanolide] | – | – | inactive | inactive | inactive | inactive | inactive | – | – | – | – | – | cytotoxic activity (in words) [1]: inactive; cytotoxic activity (in words) [2]: inactive; inhibition of acetylcholinesterase (in words) (Acetylcholinesterase): inactive; inhibition of phosphodiesterase 4 (in words) (Phosphodiesterase 4): inactive
4 | CCC(C)C=C(C)C=CC1=CC2=C(Cl)C(=O)C(C)(O)C(=O)C2=CO1 (stereo not drawn) [deacetylsclerotiorin (2), 5-Chloro-3-[3,5-dimethyl-1,3-heptadien-1-yl]-7-hydroxy-7-methyl-6H-2-benzopyran-6,8(7H)-dione] | 38.8 | 43.6 | Weak | Significant inhibition | Significant inhibition | Weak | Significant inhibition | 7.45 | 2.83 | > 50 | 2.79 | 24 | IC50 (Phosphodiesterase 4; listed as 2): 2.8 µM
5 | CCC(C)/C=C(C)/C=C/C1=CC2=C(Cl)C(=O)[C@@](C)(OC(=O)/C=C(\C)CC(=O)O)C(=O)C2=CO1 (stereo partly drawn) [helicusin A (1), helicusin A] | > 100 | > 100 | – | Significant inhibition | Significant inhibition | – | Significant inhibition | 7.6 | 7.23 | 2.1 | > 10 | 24.4 | –
6 | CCC(C)C(O)C(C)(O)/C=C/C1=CC2=C(Cl)C(=O)[C@@](C)(OC(=O)/C=C(\C)CC(=O)O)C(=O)C2=CO1 (stereo partly drawn) [helicusin E (3), helicusin E] | > 100 | > 100 | – | – | – | – | – | > 100 | > 100 | > 50 | > 10 | > 200 | –
7 | CCC(C)/C=C(C)/C=C/C1=CC2=C(Cl)C(=O)C(C)(OC(C)=O)C(=O)C2=CN1CCCC(=O)O (stereo not drawn) [isochromophilone IX] | – | – | – | – | – | – | – | – | – | – | – | – | MIC (MRSA): approximately 100 μM
8 | CCC(C)/C=C(C)/C=C/C1=CC2=C(Cl)C(=O)[C@@](C)(OC(=O)/C=C(\C)CC(=O)O)C(=O)C2=CN1CCO (stereo partly drawn) [isochromophilone X (4), isochromophilone X] | > 100 | > 100 | – | – | – | – | – | > 100 | > 80 | – | 11.7 | > 100 | –
9 | CCC(C)/C=C(C)/C=C/C1=CC2=C(Cl)C(=O)C(C)(OC(=O)/C=C(\C)CC(=O)O)C(=O)C2(O)CO1 (stereo not drawn) [isochromophilone XI (5), isochromophilone XI] | 55.6 | 78.4 | Weak | – | weak activity | Weak | – | > 100 | 41.5 | > 50 | 8.3 | > 100 | –
10 | C[C@@H]1[C@H](O)[C@@H](C)/C=C/C=C/CC/C=C/C=C/C=C/C=C/C(O[C@H]2O[C@H](C)[C@@H](O)[C@H](N)[C@@H]2O)CC2O[C@](O)(CC(O)C(O)CCC(O)CC(O)CC(O)CC(=O)O[C@H]1C)CC(O)C2C(=O)O (stereo partly drawn) [nystatin, reference compound] | – | – | – | – | – | – | – | – | – | – | – | – | IC50 (Candida albicans): 5.8 µM
